{"source": "patent US20230303672A1", "about": "“METASTATIC CANCER TREATMENT OR PREVENTION” (OXFORD BROOKES UNIVERSITY, priority 2020, published 2023)", "molecules": {"B1": {"name": "recombinant plectin: 2b Scientific RPC754Hu01, residues Asp 175-Pro 400 (SEQ ID NO: 1) of human plectin, the actin-binding domain (protein, listed as Homo sapiens)", "chain": "DERDRVQKKTFTKWVNKHLIKAQRHISDLYEDLRDGHNLISLLEVLSGDSLPREKGRMRFHKLQNVQIALDYLRHRQVKLVNIRNDDIADGNPKLTLGLIWTIILHFQISDIQVSGQSEDMTAKEKLLLWSQRMVEGYQGLRCDNFTSSWRDGRLFNAIIHRHKPLLIDMNKVYRQTNLENLDQAFSVAERDLGVTRLLDPEDVDVPQPDEKSIITYVSSLYDAMP"}}, "key": {"[1]": {"test_system": "HPA-positive BC cells binding to endothelial cells", "conditions": "incubating cells with HPA or BSA-GalNAc; 'It has been shown'; cited from earlier work"}, "[2]": {"test_system": "MCF7 (metastatic) cells adhering to endothelial cells", "experiment": "Endothelial static adhesion assay with or without antibodies and peptides", "type": "cell-based", "conditions": "peptide and corresponding peptide conjugate; compared to BT474 (non-metastatic) cells; 12 replicates; FIG. 15", "procedure": "MCF7 and HUVEC cells were grown in 24 well cell culture plates to 70% confluency the cells were treated with Dharmafect™ transfection reagent and 5 uM of plectin siRNAs or scrambled negative control for 24 hrs. Some HUVEC and MCF7 cells were non-treated. HUVEC cells were activated by treating with 10 ug/ml TNFa in complete medium for 2 hrs at 37° C., 5% CO2. MCF7 breast cancer cells were grown in T75 flasks until 70% confluency and treated with 10 mg/ml HTPS in complete medium for 2 hrs at 37° C., 5% CO2. HTPS was removed and cells were washed with 10 ml of PBS 5 times until the wash ran clear. Cells were scraped and counted. 20,000 cells/ml was prepared. MCF7 cells were treated with either 500 ul of EVs isolated using the extraction method outlined above, or 500 ul of PBS for 10 mins at RT. EVs or PBS was removed and 1 ml of MCF7 cells were added to HUVEC cells and incubated at 37° C., 5% CO2 for 10 mins, before cells were removed and wells gently washed with warmed PBS to remove any unbound cells. Wells were then fixed with 4% PFA for 10 mins at RT. Fixative was removed and the wells washed 3 times with PBS and then coverslips were mounted using fluoromount. Total adhered cells per coverslip were counted.\nThis was as above but using 1/1000 of stock antibodies and peptides stated below."}, "[3]": {"test_system": "MCF7 breast cancer cell adhesion to endothelial cells (HUVEC)", "experiment": "Endothelial static adhesion assay with recombinant plectin", "type": "cell-based", "conditions": "MCF7 treated with 0.1 ug/ml recombinant plectin for 10 mins, compared to untreated, FIG. 6", "procedure": "Coverslips with activated endothelial cells were prepared as above. MCF7 breast cancer cells were grown in T75 flasks until 70% confluency and treated with 10 mg/ml HTPS in complete medium for 2 hrs at 37° C., 5% CO2. HTPS was removed and cells were washed with 10 ml of PBS 5 times until the wash ran clear. Cells were scraped and counted. 20,000 cells/ml was prepared. MCF7 cells were treated with either 0.1 ug/ml recombinant plectin, (2b Scientific SKU RPC754Hu01 (residues Asp 175-Pro 400 (SEQ ID NO: 1) of human plectin Uniprot ID Q15149, corresponding to the actin-binding domain), in PBS or PBS for 10 mins at RT. Recombinant plectin or PBS were removed from cells and 20,000 cells/ml of MCF7 cells were added per well and incubated for 10 mins, cells were removed and wells gently washed with warmed PBS to remove any unbound cells. Wells were then fixed with 4% PFA for 10 mins at RT. Fixative was removed and the wells washed 3 times with PBS and then coverslips were mounted using fluoromount. Total adhered cells per coverslip were counted.\nSterilised 13 mm D glass coverslips were placed in wells of 24 well plate and 100,000 HUVEC cells were seeded. Cells were incubated at 37° C. with 5% CO2 atmosphere until cells became a monolayer. HUVEC cells were activated by treating with 10 ug/ml TNFa in complete medium for 2 hrs at 37° C., 5% CO2."}}, "data": [{"molecule": "BSA-GalNAc: GalNAc sugar conjugated to BSA", "values": [{"measurement": "BC cell binding to endothelial cells", "setting": "[1]", "value": "inhibits cells binding"}]}, {"molecule": "AVIYGGVQ [SEQ7]", "values": [{"measurement": "MCF7 (metastatic) cells binding to endothelial cells (peptide)", "setting": "[2]", "value": "specifically reduces MCF7 (metastatic) cells binding to endothelial cells in a concentration dependant manner"}]}, {"molecule": "B1", "values": [{"measurement": "Cell adhesion of MCF7 to endothelial cells", "setting": "[3]", "value": "significantly decreases"}, {"measurement": "Cell adhesion of MCF7 to endothelial cells", "setting": "[3]; listed as recombinant plectin fragment", "value": "significantly reduced"}]}]}
